Converted amounts (≈) assume the structure as drawn. The source made the active and inactive calls. No cut-off for these calls is given here.
Key:
Trypanosoma brucei [1] = assay: Antitrypanosomal activity against bloodstream Trypanosoma brucei 427 after 72 hrs by resazurin assay; assay type: functional, organism-based; conditions: Trypanosoma brucei, 427, 72 h
L929 = assay: Cytotoxicity against mouse L929 cells after 72 hrs by resazurin assay; assay type: cell-based; conditions: L929, 72 h
Trypanosoma brucei [2] = assay: Antitrypanosomal activity against bloodstream Trypanosoma brucei 221 infected in Balb/c mouse assessed as increase in mouse survival rate at 50 mg/kg, ip BID for 5 days starting 24 hrs post infection measured after 30 days by microscopic analysis; assay type: functional; conditions: Trypanosoma brucei, 221, ip, route intraperitoneal
Trypanosoma brucei [3] = assay: Antitrypanosomal activity against bloodstream Trypanosoma brucei 221 infected in Balb/c mouse assessed as complete elimination of parasitemia at 50 mg/kg, ip BID for 5 days starting 24 hrs post infection measured after 30 days by microscopic analysis; assay type: functional, organism-based; parameters: dose 50 mg/kg
[4] = Selectivity ratio of IC50 for mouse L929 cells to IC50 for bloodstream Trypanosoma brucei 427; assay type: ADME, cell-based; conditions: read-out: Ratio IC50

SMILES | IC50 (Trypanosoma brucei [1]) [µg/mL] | IC50 (L929) [µg/mL] | survival at 50 mg/kg (Trypanosoma brucei [2]) [%] | Activity (Trypanosoma brucei [3]) | selectivity ratio [4]
O=C(/C=C/c1ccc2c(c1)B(O)OC2)c1ccccc1O | 0.172 (≈ 0.614 µM) | > 10 |  |  | 
O=C(/C=C/c1ccc2c(c1)B(O)OC2)c1ccc(-c2ccccc2)cc1 | 0.436 (≈ 1.28 µM) | > 10 |  |  | 
COc1ccc(C(=O)/C=C/c2ccc3c(c2)B(O)OC3)cc1OC | 0.03 (≈ 0.0926 µM) | > 10 |  |  | 
O=C(/C=C/c1ccc2c(c1)B(O)OC2)c1ccc(I)cc1 | 0.171 (≈ 0.438 µM) | > 10 |  |  | 
O=C(/C=C/c1ccc2c(c1)B(O)OC2)c1cccc(F)c1 | 0.046 (≈ 0.163 µM) | > 10 |  |  | 
Cc1cccc(C(=O)/C=C/c2ccc3c(c2)B(O)OC3)c1 | 0.048 (≈ 0.173 µM) | 8.56 (≈ 30.8 µM) | 0 |  | 
O=C(/C=C/c1ccc2c(c1)B(O)OC2)c1ccc(OCc2ccccc2)cc1 | 0.164 (≈ 0.443 µM) | > 10 |  |  | 
COc1cccc(C(=O)CCc2ccc3c(c2)B(O)OC3)c1 | 0.69 (≈ 2.33 µM) | > 10 |  |  | 
O=C(/C=C/c1ccc2c(c1)B(O)OC2)c1cccc(O)c1 | 0.037 (≈ 0.132 µM) | 7.56 (≈ 27 µM) |  |  | 
O=C(/C=C/c1ccc2c(c1)B(O)OC2)c1ccc(Cl)cc1 | 0.06 (≈ 0.201 µM) | > 10 | 0 |  | 
O=C(/C=C/c1ccc2c(c1)B(O)OC2)c1ccc(F)cc1 | 0.1 (≈ 0.355 µM) | > 10 | 0 |  | 
Nc1ccc(C(=O)/C=C/c2ccc3c(c2)B(O)OC3)cc1 | 0.024 (≈ 0.086 µM) | > 10 |  |  | 
COc1cc(C(=O)/C=C/c2ccc3c(c2)B(O)OC3)cc(OC)c1OC | 0.113 (≈ 0.319 µM) | > 10 |  |  | 
CSc1ccc(C(=O)/C=C/c2ccc3c(c2)B(O)OC3)cc1 | 0.059 (≈ 0.19 µM) | > 10 |  |  | 
O=C(/C=C/c1ccc2c(c1)B(O)OC2)c1ccccc1F | 0.071 (≈ 0.252 µM) | > 10 |  |  | 
O=C(/C=C/c1ccc2c(c1)B(O)OC2)c1ccc(O)cc1 | 0.043 (≈ 0.154 µM) | > 10 |  |  | 
O=C(/C=C/c1ccc2c(c1)B(O)OC2)c1ccc([N+](=O)[O-])cc1 | 0.082 (≈ 0.265 µM) | > 10 |  |  | 
O=C(/C=C/c1ccccc1)c1ccccc1 [CHALCONE] | 0.473 (≈ 2.27 µM) | 6.92 (≈ 33.2 µM) |  |  | 
COCOc1ccccc1C(=O)/C=C/c1ccc2c(c1)B(O)OC2 | 0.366 (≈ 1.13 µM) | 9.02 (≈ 27.8 µM) |  |  | 
O=C(/C=C/c1ccc2c(c1)B(O)OC2)c1cccs1 | 0.045 (≈ 0.167 µM) | > 10 | 20 |  | 
O=C(/C=C/c1ccc2c(c1)B(O)OC2)c1cccc2ccccc12 | 0.135 (≈ 0.43 µM) | 3.67 (≈ 11.7 µM) |  |  | 
COc1cccc(C(=O)/C=C/c2ccc3c(c2)B(O)OC3)c1 | 0.022 (≈ 0.0748 µM) | > 10 | 100 | Active | 
O=C(/C=C/c1ccc2c(c1)B(O)OC2)c1ccc(Br)cc1 | 0.09 (≈ 0.262 µM) | > 10 | 0 |  | 
Nc1cccc(C(=O)/C=C/c2ccc3c(c2)B(O)OC3)c1 | 0.056 (≈ 0.201 µM) | 10 (≈ 35.8 µM) |  |  | 

SMILES | IC50 (Trypanosoma brucei [1]) [µg/mL] | IC50 (L929) [µg/mL] | survival at 50 mg/kg (Trypanosoma brucei [2]) [%] | Activity (Trypanosoma brucei [3]) | selectivity ratio [4]
O=C(/C=C/c1ccc2c(c1)B(O)OC2)c1ccc(Cl)c(Cl)c1 | 0.09 (≈ 0.27 µM) | > 10 |  |  | 
Cc1ccc(C(=O)/C=C/c2ccc3c(c2)B(O)OC3)cc1C | 0.04 (≈ 0.137 µM) | > 10 |  |  | 
COc1ccccc1C(=O)/C=C/c1ccc2c(c1)B(O)OC2 | 0.058 (≈ 0.197 µM) | 6.35 (≈ 21.6 µM) |  |  | 
OB1OCc2ccc(/C=C/C(O)c3ccccc3)cc21 (centres undefined) | 0.239 (≈ 0.898 µM) | 2.88 (≈ 10.8 µM) |  |  | 
CCOC(=O)c1ccc(C(=O)/C=C/c2ccc3c(c2)B(O)OC3)cc1 | 0.2 (≈ 0.595 µM) | > 10 |  |  | 
O=C(O)c1ccc(C(=O)/C=C/c2ccc3c(c2)B(O)OC3)cc1 | 4.45 (≈ 14.4 µM) | > 10 |  |  | 
O=C(/C=C/c1ccc2c(c1)B(O)OC2)c1ccccn1 | 0.099 (≈ 0.373 µM) | > 10 |  |  | 
COc1ccc(C(=O)/C=C/c2ccc3c(c2)B(O)OC3)cc1 | 0.071 (≈ 0.241 µM) | > 10 | 0 |  | 
COc1ccc(C(=O)/C=C/c2ccc3c(c2)B(O)OC3)c(OC)c1 | 0.037 (≈ 0.114 µM) | 7.87 (≈ 24.3 µM) |  |  | 
O=C(/C=C/c1ccc2c(c1)B(O)OC2)c1ccco1 | 0.064 (≈ 0.252 µM) | > 10 |  |  | 
Cn1cccc1C(=O)/C=C/c1ccc2c(c1)B(O)OC2 | 0.057 (≈ 0.213 µM) | > 10 |  |  | 
O=C(CCc1ccc2c(c1)B(O)OC2)c1ccccc1 | 0.331 (≈ 1.24 µM) | > 10 |  |  | 
COCOc1cccc(C(=O)/C=C/c2ccc3c(c2)B(O)OC3)c1 | 0.071 (≈ 0.219 µM) | > 10 | 0 |  | 
O=C(/C=C/c1ccc2c(c1)B(O)OC2)c1ccc(C(F)(F)F)cc1 | 0.133 (≈ 0.4 µM) | > 10 |  |  | 
COc1cccc(C(=O)/C=C/c2ccccc2)c1 | 0.395 (≈ 1.66 µM) | 5.7 (≈ 23.9 µM) |  |  | 
Cc1ccc(C(=O)/C=C/c2ccc3c(c2)B(O)OC3)cc1 | 0.046 (≈ 0.165 µM) | > 10 |  |  | 
COc1cc(C(=O)/C=C/c2ccc3c(c2)B(O)OC3)ccc1N | 0.01 (≈ 0.0323 µM) | 1.45 (≈ 4.69 µM) | 100 | Active | > 100
O=C(/C=C/c1ccc2c(c1)B(O)OC2)c1ccc(O)c(O)c1 | 0.055 (≈ 0.186 µM) | > 10 |  |  | 
COc1cc(C(=O)/C=C/c2ccc3c(c2)B(O)OC3)ccc1[N+](=O)[O-] | 0.044 (≈ 0.13 µM) | > 10 | 0 |  | 
O=C(/C=C/c1ccc2c(c1)B(O)OC2)c1ccccc1 | 0.089 (≈ 0.337 µM) | > 10 | 0 |  | 
CCc1ccc(C(=O)/C=C/c2ccc3c(c2)B(O)OC3)cc1 | 0.064 (≈ 0.219 µM) | > 10 |  |  | 
CC(=O)Nc1ccc(C(=O)/C=C/c2ccc3c(c2)B(O)OC3)cc1 | 0.04 (≈ 0.125 µM) | > 10 | 0 |  | 
O=C(/C=C/c1ccc2c(c1)B(O)OC2)c1ccc2c(c1)OCCO2 | 0.08 (≈ 0.248 µM) | 6.8 (≈ 21.1 µM) |  |  | 
